The NIST ThermoML archive (doi:10.1016/j.jct.2017.05.001)

Assay: wn = mass fraction of the nth substance listed
Settings: Liquid; for mass density: Vibrating tube method

OCCNCCO [diethanolamine] + O
mass density [kg/m3]
Settings	w1 = 0.0993	w1 = 0.2	w1 = 0.3002	w1 = 0.3997
333.15 K, 130000 kPa	1041.7	1050.9	1060.6	1070.8
333.15 K, 140000 kPa	1045	1054.1	1063.7	1074
353.15 K, 100 kPa	981.9	992.4	1003	1013.9
353.15 K, 500 kPa	982	992.5	1003.1	1014
353.15 K, 1000 kPa	982.2	992.7	1003.4	1014.2
353.15 K, 2000 kPa	982.6	993.1	1003.7	1014.5
353.15 K, 5000 kPa	983.9	994.4	1005	1015.8
353.15 K, 10000 kPa	986.1	996.5	1007.1	1017.8
353.15 K, 15000 kPa	988.2	998.6	1009.1	1019.8
353.15 K, 20000 kPa	990.3	1000.6	1011.1	1021.8
353.15 K, 30000 kPa	994.4	1004.7	1015.1	1025.7
353.15 K, 40000 kPa	998.5	1008.5	1018.9	1029.4
353.15 K, 50000 kPa	1002.4	1012.4	1022.6	1033
353.15 K, 60000 kPa	1006.2	1016.3	–	–

viscosity [mPa·s], 353.15 K
Settings	100 kPa	5000 kPa	10000 kPa	15000 kPa	20000 kPa	25000 kPa	30000 kPa	40000 kPa	60000 kPa
Concentric cylinders viscometry, w1 = 0.1	0.474	–	–	–	–	–	–	–	–
Concentric cylinders viscometry, w1 = 0.2	0.627	–	–	–	–	–	–	–	–
Concentric cylinders viscometry, w1 = 0.3	0.866	–	–	–	–	–	–	–	–
Concentric cylinders viscometry, w1 = 0.4	1.244	–	–	–	–	–	–	–	–
Falling or rolling sphere viscometry, w1 = 0.0993	0.4595	0.4583	0.4614	0.4631	0.464	0.4671	0.4692	0.4733	0.4815
Falling or rolling sphere viscometry, w1 = 0.2	0.6088	0.6083	0.6136	0.6167	0.6198	0.6239	0.6271	0.6333	0.646
Falling or rolling sphere viscometry, w1 = 0.3002	0.8528	0.8459	0.8544	0.8578	0.8642	0.8704	0.8768	0.8887	0.9096
Falling or rolling sphere viscometry, w1 = 0.3997	1.226	1.231	1.239	1.247	1.255	1.264	1.275	1.292	1.335
